{"source": "patent US6461997B1", "about": "“Triazole sulfones having herbicidal activity” (Monsanto Technology LLC, priority 1999, dated 2002)", "key": {"SETFA (giant foxtail)": {"system": "SETFA (giant foxtail)", "assay": "Pre-plant incorporated (PPI) herbicidal activity, warm season", "format": "in vivo, Setaria faberi", "conditions": "for Percent inhibition SETFA: PPI application", "in_short": "(§1)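 Herbicidal effect is given as percent inhibition compared with untreated pots after roughly 14 days. The compound is incorporated into the cover soil layer rather than sprayed on the surface. Temperature regime is 30/21° C for warm-season and 18/13° C for cool-season species.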"}, "barley (HORVX)": {"system": "barley (HORVX)", "assay": "Selectivity test, PPI, cool season crop", "format": "in vivo, Hordeunm vulgare", "conditions": "PPI application", "in_short": "(§2)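 Pre-plant incorporated: compound in organic solvent sprayed onto cover soil, mixed and laid over seeds; untreated soil for controls. Greenhouse after treatment: warm season 30/21° C., cool season 18/13° C. day/night. Percent inhibition versus untreated plants scored about 14 days after planting.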"}, "SINAR (wild mustard)": {"system": "SINAR (wild mustard)", "assay": "Pre-plant incorporated (PPI) herbicidal activity, cool season", "format": "in vivo, Sinapis arvensis", "conditions": "for Percent inhibition SINAR: weed, PPI application", "in_short": "as §1"}, "[1]": {"system": "LAMPU (purple deadnettle)", "assay": "Pre-plant incorporated (PPI) herbicidal activity, cool season", "format": "in vivo, Lamium purpureum", "conditions": "for Percent inhibition LAMPU: weed, PPI application", "in_short": "as §1"}, "[2]": {"system": "GALAP (catchweed bedstraw)", "assay": "Pre-plant incorporated (PPI) herbicidal activity, cool season", "format": "in vivo, Galium aparine", "conditions": "for Percent inhibition GALAP: weed, PPI application", "in_short": "as §1"}, "STEME (common chickweed)": {"system": "STEME (common chickweed)", "assay": "Pre-plant incorporated (PPI) herbicidal activity, cool season", "format": "in vivo, Stellaria media", "conditions": "for Percent inhibition STEME: weed, PPI application", "in_short": "as §1"}, "corn (ZEAMX)": {"system": "corn (ZEAMX)", "assay": "Selectivity test, PPI, warm season crop", "format": "in vivo, Zea mays", "conditions": "PPI application", "in_short": "as §2"}, "SORVU (shattercane)": {"system": "SORVU (shattercane)", "assay": "Pre-plant incorporated (PPI) herbicidal activity, warm season", "format": "in vivo, Sorghum vulgare", "conditions": "for Percent inhibition SORVU: PPI application", "in_short": "as §1"}, "wheat (TRZAW)": {"system": "wheat (TRZAW)", "assay": "Selectivity test, PPI, cool season crop", "format": "in vivo, Triticum aestivum", "conditions": "PPI application", "in_short": "as §2"}, "[3]": {"system": "AGRRE (quackgrass (seedling))", "assay": "Pre-plant incorporated (PPI) herbicidal activity, cool season", "format": "in vivo, Elymus repens", "conditions": "for Percent inhibition AGRRE: weed, PPI application", "in_short": "as §1"}, "SASKR (russian thistle)": {"system": "SASKR (russian thistle)", "assay": "Pre-plant incorporated (PPI) herbicidal activity, cool season", "format": "in vivo, Salsola kali", "conditions": "for Percent inhibition SASKR: weed, PPI application", "in_short": "as §1"}, "[4]": {"system": "BRAPP (broadleaf signalgrass)", "assay": "Pre-plant incorporated (PPI) herbicidal activity, warm season", "format": "in vivo, Brachiaria platyphylla", "conditions": "for Percent inhibition BRAPP: PPI application", "in_short": "as §1"}, "SETVI (green foxtail)": {"system": "SETVI (green foxtail)", "assay": "Pre-plant incorporated (PPI) herbicidal activity, cool season", "format": "in vivo, Setaria viridis", "conditions": "for Percent inhibition SETVI: weed, PPI application", "in_short": "as §1"}, "[5]": {"conditions": "pre-plant incorporated, lowest tested rate with 80% or greater inhibition, about 14 days"}}}
{"compound": "CCN(CC)C(=O)n1cnc(S(=O)(=O)C(F)(F)C(F)F)n1", "note": "[Example 16]", "values": [{"measurement": "Percent inhibition SETFA", "setting": "SETFA (giant foxtail); 10 g/ha", "result": 80, "unit": "%"}, {"measurement": "Percent inhibition SETFA", "setting": "SETFA (giant foxtail); 30 g/ha", "result": 80, "unit": "%"}, {"measurement": "Percent inhibition SETFA", "setting": "SETFA (giant foxtail); 100 g/ha", "result": 100, "unit": "%"}, {"measurement": "Percent inhibition SETFA", "setting": "SETFA (giant foxtail); 300 g/ha", "result": 100, "unit": "%"}, {"measurement": "Percent inhibition SETFA", "setting": "SETFA (giant foxtail); 900 g/ha", "result": 100, "unit": "%"}, {"measurement": "PPI activity GR80, SETFA", "setting": "SETFA (giant foxtail); [5]", "result": 10, "unit": "g/ha"}, {"measurement": "Percent inhibition HORVX", "setting": "barley (HORVX); 10 g/ha", "result": 0, "unit": "%"}, {"measurement": "Percent inhibition HORVX", "setting": "barley (HORVX); 30 g/ha", "result": 0, "unit": "%"}, {"measurement": "Percent inhibition HORVX", "setting": "barley (HORVX); 100 g/ha", "result": 10, "unit": "%"}, {"measurement": "Percent inhibition HORVX", "setting": "barley (HORVX); 300 g/ha", "result": 25, "unit": "%"}, {"measurement": "Percent inhibition HORVX", "setting": "barley (HORVX); 900 g/ha", "result": 20, "unit": "%"}, {"measurement": "PPI activity GR80, SINAR", "setting": "SINAR (wild mustard); [5]", "result": 10, "unit": "g/ha"}, {"measurement": "Percent inhibition SINAR", "setting": "SINAR (wild mustard); 10 g/ha", "result": 0, "unit": "%"}, {"measurement": "Percent inhibition SINAR", "setting": "SINAR (wild mustard); 30 g/ha", "result": 50, "unit": "%"}, {"measurement": "Percent inhibition SINAR", "setting": "SINAR (wild mustard); 100 g/ha", "result": 100, "unit": "%"}, {"measurement": "Percent inhibition SINAR", "setting": "SINAR (wild mustard); 300 g/ha", "result": 100, "unit": "%"}, {"measurement": "Percent inhibition SINAR", "setting": "SINAR (wild mustard); 900 g/ha", "result": 100, "unit": "%"}, {"measurement": "PPI activity GR80, LAMPU", "setting": "[1]; [5]", "result": 10, "unit": "g/ha"}, {"measurement": "Percent inhibition LAMPU", "setting": "[1]; 10 g/ha", "result": 50, "unit": "%"}, {"measurement": "Percent inhibition LAMPU", "setting": "[1]; 30 g/ha", "result": 80, "unit": "%"}, {"measurement": "Percent inhibition LAMPU", "setting": "[1]; 100 g/ha", "result": 90, "unit": "%"}, {"measurement": "Percent inhibition LAMPU", "setting": "[1]; 300 g/ha", "result": 80, "unit": "%"}, {"measurement": "Percent inhibition LAMPU", "setting": "[1]; 900 g/ha", "result": 90, "unit": "%"}, {"measurement": "PPI activity GR80, GALAP", "setting": "[2]; [5]", "result": 100, "unit": "g/ha"}, {"measurement": "Percent inhibition GALAP", "setting": "[2]; 10 g/ha", "result": 0, "unit": "%"}, {"measurement": "Percent inhibition GALAP", "setting": "[2]; 30 g/ha", "result": 20, "unit": "%"}, {"measurement": "Percent inhibition GALAP", "setting": "[2]; 100 g/ha", "result": 100, "unit": "%"}, {"measurement": "Percent inhibition GALAP", "setting": "[2]; 300 g/ha", "result": 100, "unit": "%"}, {"measurement": "Percent inhibition GALAP", "setting": "[2]; 900 g/ha", "result": 100, "unit": "%"}, {"measurement": "PPI activity GR80, STEME", "setting": "STEME (common chickweed); [5]", "result": 300, "unit": "g/ha"}, {"measurement": "Percent inhibition STEME", "setting": "STEME (common chickweed); 10 g/ha", "result": 40, "unit": "%"}, {"measurement": "Percent inhibition STEME", "setting": "STEME (common chickweed); 30 g/ha", "result": 75, "unit": "%"}, {"measurement": "Percent inhibition STEME", "setting": "STEME (common chickweed); 100 g/ha", "result": 60, "unit": "%"}, {"measurement": "Percent inhibition STEME", "setting": "STEME (common chickweed); 300 g/ha", "result": 60, "unit": "%"}, {"measurement": "Percent inhibition STEME", "setting": "STEME (common chickweed); 900 g/ha", "result": 95, "unit": "%"}, {"measurement": "Percent inhibition ZEAMX", "setting": "corn (ZEAMX); 10 g/ha", "result": 0, "unit": "%"}, {"measurement": "Percent inhibition ZEAMX", "setting": "corn (ZEAMX); 30 g/ha", "result": 5, "unit": "%"}, {"measurement": "Percent inhibition ZEAMX", "setting": "corn (ZEAMX); 100 g/ha", "result": 20, "unit": "%"}, {"measurement": "Percent inhibition ZEAMX", "setting": "corn (ZEAMX); 300 g/ha", "result": 40, "unit": "%"}, {"measurement": "Percent inhibition ZEAMX", "setting": "corn (ZEAMX); 900 g/ha", "result": 80, "unit": "%"}, {"measurement": "Percent inhibition SORVU", "setting": "SORVU (shattercane); 10 g/ha", "result": 20, "unit": "%"}, {"measurement": "Percent inhibition SORVU", "setting": "SORVU (shattercane); 30 g/ha", "result": 80, "unit": "%"}, {"measurement": "Percent inhibition SORVU", "setting": "SORVU (shattercane); 100 g/ha", "result": 100, "unit": "%"}, {"measurement": "Percent inhibition SORVU", "setting": "SORVU (shattercane); 300 g/ha", "result": 100, "unit": "%"}, {"measurement": "Percent inhibition SORVU", "setting": "SORVU (shattercane); 900 g/ha", "result": 100, "unit": "%"}, {"measurement": "PPI activity GR80, SORVU", "setting": "SORVU (shattercane); [5]", "result": 30, "unit": "g/ha"}, {"measurement": "Percent inhibition TRZAW", "setting": "wheat (TRZAW); 10 g/ha", "result": 0, "unit": "%"}, {"measurement": "Percent inhibition TRZAW", "setting": "wheat (TRZAW); 30 g/ha", "result": 0, "unit": "%"}, {"measurement": "Percent inhibition TRZAW", "setting": "wheat (TRZAW); 100 g/ha", "result": 10, "unit": "%"}, {"measurement": "Percent inhibition TRZAW", "setting": "wheat (TRZAW); 300 g/ha", "result": 10, "unit": "%"}, {"measurement": "Percent inhibition TRZAW", "setting": "wheat (TRZAW); 900 g/ha", "result": 20, "unit": "%"}, {"measurement": "PPI activity GR80, AGRRE", "setting": "[3]; [5]", "result": 300, "unit": "g/ha"}, {"measurement": "Percent inhibition AGRRE", "setting": "[3]; 10 g/ha", "result": 0, "unit": "%"}, {"measurement": "Percent inhibition AGRRE", "setting": "[3]; 30 g/ha", "result": 0, "unit": "%"}, {"measurement": "Percent inhibition AGRRE", "setting": "[3]; 100 g/ha", "result": 0, "unit": "%"}, {"measurement": "Percent inhibition AGRRE", "setting": "[3]; 300 g/ha", "result": 20, "unit": "%"}, {"measurement": "Percent inhibition AGRRE", "setting": "[3]; 900 g/ha", "result": 70, "unit": "%"}, {"measurement": "PPI activity GR80, SASKR", "setting": "SASKR (russian thistle); [5]", "result": 30, "unit": "g/ha"}, {"measurement": "Percent inhibition SASKR", "setting": "SASKR (russian thistle); 10 g/ha", "result": 65, "unit": "%"}, {"measurement": "Percent inhibition SASKR", "setting": "SASKR (russian thistle); 30 g/ha", "result": 90, "unit": "%"}, {"measurement": "Percent inhibition SASKR", "setting": "SASKR (russian thistle); 100 g/ha", "result": 80, "unit": "%"}, {"measurement": "Percent inhibition SASKR", "setting": "SASKR (russian thistle); 300 g/ha", "result": 80, "unit": "%"}, {"measurement": "Percent inhibition SASKR", "setting": "SASKR (russian thistle); 900 g/ha", "result": 100, "unit": "%"}, {"measurement": "Percent inhibition BRAPP", "setting": "[4]; 10 g/ha", "result": 20, "unit": "%"}, {"measurement": "Percent inhibition BRAPP", "setting": "[4]; 30 g/ha", "result": 60, "unit": "%"}, {"measurement": "Percent inhibition BRAPP", "setting": "[4]; 100 g/ha", "result": 100, "unit": "%"}, {"measurement": "Percent inhibition BRAPP", "setting": "[4]; 300 g/ha", "result": 100, "unit": "%"}, {"measurement": "Percent inhibition BRAPP", "setting": "[4]; 900 g/ha", "result": 100, "unit": "%"}, {"measurement": "PPI activity GR80, BRAPP", "setting": "[4]; [5]", "result": 10, "unit": "g/ha"}, {"measurement": "PPI activity GR80, SETVI", "setting": "SETVI (green foxtail); [5]", "result": 10, "unit": "g/ha"}, {"measurement": "Percent inhibition SETVI", "setting": "SETVI (green foxtail); 10 g/ha", "result": 100, "unit": "%"}, {"measurement": "Percent inhibition SETVI", "setting": "SETVI (green foxtail); 30 g/ha", "result": 80, "unit": "%"}, {"measurement": "Percent inhibition SETVI", "setting": "SETVI (green foxtail); 100 g/ha", "result": 95, "unit": "%"}, {"measurement": "Percent inhibition SETVI", "setting": "SETVI (green foxtail); 300 g/ha", "result": 100, "unit": "%"}, {"measurement": "Percent inhibition SETVI", "setting": "SETVI (green foxtail); 900 g/ha", "result": 100, "unit": "%"}]}
